Our source for the Activity and Ki values is ChEMBL document CHEMBL1268934, “Design, synthesis, and subtype selectivity of 3,6-disubstituted β-carbolines at Bz/GABA(A)ergic receptors. SAR and studies directed toward agents for treatment of alcohol abuse” (Bioorg Med Chem, 2010).

Test [1] deals with T1, GABA A receptor alpha-4/beta-3/gamma-2 (Homo sapiens, UniProt P18507+P28472+P48169). The experiment in a line: Agonist activity at human recombinant GABAA alpha-4-beta-3-gamma-2 receptor expressed in Xenopus oocytes at 1 to 10 uM by patch clamp technique. Type of test: functional, cell-based. The conditions noted are these: Oocyte.
Test [2] has as its target T1, GABA A receptor alpha-4/beta-3/gamma-2. The experiment in a line: Displacement of [3H]flunitrazepam from human recombinant GABAA alpha-4-beta-3-gamma-2 receptor expressed in HEK cells by liquid scintillation counting. Type of test: cell-based, HEK293. The conditions noted are these: read-out: Ki.
The target of test [3] is GABA-A receptor; alpha-2/beta-3/gamma-2 (Homo sapiens) (UniProt P18507+P28472+P47869). The experiment in a line: Agonist activity at human recombinant GABAA alpha-2-beta-3-gamma-2 receptor expressed in Xenopus oocytes at 1 to 10 uM by patch clamp technique. Type of test: functional, cell-based. The conditions noted are these: Oocyte.
Test [4] has as its target GABA-A receptor; alpha-3/beta-3/gamma-2 (Homo sapiens) (UniProt P18507+P28472+P34903). The experiment in a line: Agonist activity at human recombinant GABAA alpha-3-beta-3-gamma-2 receptor expressed in Xenopus oocytes at 1 to 10 uM by patch clamp technique. The note with it: Oocyte. It is filed as functional, cell-based.
The target in test [5] is GABA-A receptor; alpha-5/beta-3/gamma-2 (Homo sapiens) (UniProt P18507+P28472+P31644). The experiment in a line: Agonist activity at human recombinant GABAA alpha-5-beta-3-gamma-2 receptor expressed in Xenopus oocytes at 1 to 10 uM by patch clamp technique. The note with it: Oocyte. It is filed as functional, cell-based.
Test [6] addresses GABA-A receptor; alpha-1/beta-3/gamma-2 (Homo sapiens) (UniProt P14867+P18507+P28472). The experiment in a line: Agonist activity at human recombinant GABAA alpha-1-beta-3-gamma-2 receptor expressed in Xenopus oocytes at 1 to 10 uM by patch clamp technique. Type of test: functional, cell-based. The conditions noted are these: Oocyte.

T1 sequence (P18507 whole entry): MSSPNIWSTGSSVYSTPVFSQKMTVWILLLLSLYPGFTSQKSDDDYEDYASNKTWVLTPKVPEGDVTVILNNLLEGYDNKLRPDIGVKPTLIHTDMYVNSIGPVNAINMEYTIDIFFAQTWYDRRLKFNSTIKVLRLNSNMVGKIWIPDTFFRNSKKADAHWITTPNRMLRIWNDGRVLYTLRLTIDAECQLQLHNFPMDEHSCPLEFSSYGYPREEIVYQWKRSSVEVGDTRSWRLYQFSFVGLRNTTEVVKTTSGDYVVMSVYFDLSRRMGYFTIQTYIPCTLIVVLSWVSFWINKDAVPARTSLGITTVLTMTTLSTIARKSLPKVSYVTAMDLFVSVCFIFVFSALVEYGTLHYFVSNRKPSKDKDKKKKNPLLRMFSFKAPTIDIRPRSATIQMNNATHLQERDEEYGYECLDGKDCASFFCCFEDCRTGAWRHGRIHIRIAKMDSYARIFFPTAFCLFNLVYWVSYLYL
T1 sequence (P28472 whole entry): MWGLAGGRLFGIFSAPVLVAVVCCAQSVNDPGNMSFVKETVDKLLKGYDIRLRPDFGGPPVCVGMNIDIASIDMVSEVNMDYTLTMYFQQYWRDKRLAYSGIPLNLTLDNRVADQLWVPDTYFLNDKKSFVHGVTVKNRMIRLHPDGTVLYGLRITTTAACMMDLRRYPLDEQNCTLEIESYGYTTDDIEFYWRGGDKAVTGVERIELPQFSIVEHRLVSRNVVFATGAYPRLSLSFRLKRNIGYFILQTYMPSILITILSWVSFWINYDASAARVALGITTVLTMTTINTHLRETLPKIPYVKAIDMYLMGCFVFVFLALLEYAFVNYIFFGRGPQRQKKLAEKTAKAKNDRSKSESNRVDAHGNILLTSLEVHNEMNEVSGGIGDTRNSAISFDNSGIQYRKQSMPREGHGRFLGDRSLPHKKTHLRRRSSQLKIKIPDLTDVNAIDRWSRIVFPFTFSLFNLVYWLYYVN
T1 sequence (P48169 whole entry): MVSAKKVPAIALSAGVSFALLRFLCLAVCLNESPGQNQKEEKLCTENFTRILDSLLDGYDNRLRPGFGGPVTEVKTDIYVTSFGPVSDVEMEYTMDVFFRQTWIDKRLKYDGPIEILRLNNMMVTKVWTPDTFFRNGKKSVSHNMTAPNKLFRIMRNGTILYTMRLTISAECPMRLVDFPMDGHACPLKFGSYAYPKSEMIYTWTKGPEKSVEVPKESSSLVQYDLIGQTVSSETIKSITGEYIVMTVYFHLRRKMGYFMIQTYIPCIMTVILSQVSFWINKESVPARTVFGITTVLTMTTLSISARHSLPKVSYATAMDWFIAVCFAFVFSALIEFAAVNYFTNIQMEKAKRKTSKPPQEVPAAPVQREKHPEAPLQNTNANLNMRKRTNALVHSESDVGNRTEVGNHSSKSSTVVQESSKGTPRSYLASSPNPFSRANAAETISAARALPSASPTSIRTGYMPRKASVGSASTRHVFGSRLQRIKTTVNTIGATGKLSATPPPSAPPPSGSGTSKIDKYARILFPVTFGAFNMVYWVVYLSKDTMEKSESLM

Turning to `CC(C)(C)OC(=O)c1cc2c3ccccc3nc-2c[nH]1`, the Activity in test [1] came out at 107%; in test [3], 99%; in test [4], 108%; in test [5], 88%; in test [6], 96%. In addition, in test [2], the Ki amounted to 1 µM.
